Literature values in patent publication US20080063689A1, “Dietary supplements containing anthocyanins and methods for using same to enhance creatine absorption and vasodilation” (priority 2006, published 2008).

Tested on: pancreatic beta cells
Conditions: glucose concentrations within physiological norms

Row | Substance | ability to stimulate insulin secretion
1 | delphinium 3-glycoside | highest abilities to stimulate insulin secretion
2 | cyanidin-3-glycoside | highest abilities to stimulate insulin secretion
